# Source: article PMC8591608, “DNDI-6148: A Novel Benzoxaborole Preclinical Candidate for the Treatment of Visceral Leishmaniasis” (Journal of Medicinal Chemistry, 2021)
# Where two headings read alike, the source gives them in different places.
# Tests used:
# [1] = tested on: L. infantum and L. donovani; experiment: Hamster models of infection (summary statement); settings: in vivo efficacy in hamster models of infection
# From the text: Female golden hamsters were randomly allocated to experimental groups of six animals each, based on body weight. At the start of the experiment (Day 0), each animal was infected with L. infantum or L. donovani inoculum, delivered by intracardial injection. Six hamsters were assigned to the vehicle-treated, infected control group. Six hamsters were assigned per group (1 group/compound) for the evaluation of compound and miltefosine. At Day 21 postinfection (21 dpi), all animals in each group were dosed orally for five (or ten) consecutive days (21–25 dpi): compound was dosed at 25–50 mg/kg b.i.d.; miltefosine was dosed at 40 mg/kg q.d. At Day 35 (10 days after the final oral dose), all animals were euthanized and autopsies were conducted. The study evaluated the following parameters. • 1. Adverse effects: all animals were observed daily for the occurrence/presence of adverse effects. • 2. […] Parasite burden: amastigote burdens in each target organ (liver, spleen, and bone marrow) were determined at Day 35. […] Impression smears were stained with Giemsa for microscopic examination of the total amastigote burden, defined as the mean number of amastigotes per cell multiplied by the number of cells counted (minimum 500 nuclei); the results were expressed as a percentage reduction in amastigote burden compared to vehicle-treated, infected control animals.
# [2] = Plasma-protein binding, hamster; assay type: in vitro ADME; settings: golden (Syrian), pH 7.4
# Experimental: Tests were conducted by WuXi AppTec, Co., China, using the equilibrium dialysis method and a 96-well plate format. The test compound (at 2 μM, in triplicate) in solution in plasma (Balb/c mouse, golden (Syrian) hamster, Sprague-Dawley rat, Beagle dog or human) was dialyzed against 100 mM phosphate-buffered saline (pH 7.4) on a rotating plate incubated for 6 h at 37 °C. Following the precipitation of protein with acetonitrile or acetonitrile/methanol containing both 1% phosphoric acid, the amount of compound present in each compartment was quantified by LC-MS/MS.
# [3] = Thermodynamic solubility; assay type: physicochemical
# Experimental: The thermodynamic solubility was measured by WuXi AppTec, China. Aliquots of the compound DMSO stock (10 mM) were transferred to fasted state simulated intestinal fluid (FaSSIF) buffer (pH 6.5) or fed state simulated intestinal fluid (FeSSIF) buffer (pH 5.0), and the mixtures were shaken for 24 h at room temperature. Following sampling by a Whatman filter device, the compound concentrations were determined by UV spectroscopy.
# [4] = In vivo pharmacokinetics in rat; design: species or system male Sprague-Dawley rats; settings: for MRT inf: read-out: MRT0-inf; for MRT last: read-out: MRT0-last
# Experimental: DNDI-6148 was formulated in 2% ethanol, 1 mol equiv NaOH, dextrose (5% solution), and administrated to male Sprague-Dawley rats, either i.v. after filtration and pH adjustment (at 2 mg/kg), or p.o. as a homogenous suspension (at 10 mg/kg). The K2-EDTA anticoagulant was added to blood samples collected at predose, 0.083 (i.v. only), 0.25, 0.5, 1, 2 (p.o. only), 4, 8, and 24 h, and were processed to plasma and stabilized with phosphoric acid (1% final) before analysis by LC-MS/MS. PK parameters were calculated using WinNonlin software (version 6.21 and 6.3).
# [5] = Human PK and dose prediction by allometric scaling
# [6] = tested on: wild-type T. brucei trypanosomes; experiment: Drug sensitivity, wild-type T. brucei; assay type: cell-based; settings: Trypanosoma brucei
# Experimental: (§1) The clonal L. donovani cell line LdBOB (derived from MHOM/SD/62/1S-CL2D) was grown as promastigotes at 28 °C, as described previously. Bloodstream form T. brucei MiTat 1.2 clone 221a and its derived subline, 2T1, were cultured at 37 °C in the presence of 5% CO2 in HMI9-T medium, as described previously. T. brucei cell lines overexpressing CPSF3 and overexpressing a mutated version of CPSF3 (Asn232His) were generated as part of a previous study and cultured as described.[19]
# (§2) Drug sensitivity assays with wild-type and transgenic T. brucei and L. donovani cell lines were carried out as previously described.[31],[32]
# [7] = tested on: trypanosomes overexpressing the wild-type version of CPSF3; experiment: Drug sensitivity, T. brucei overexpressing CPSF3; assay type: cell-based
# Experimental: as §1, §2
# [8] = tested on: CPSF3-overexpressing L. donovani promastigotes; experiment: Drug sensitivity, CPSF3-overexpressing L. donovani promastigotes; assay type: cell-based; settings: Leishmania donovani
# Experimental: as §1
# L. donovaniCPSF3 gene (LdBPK_343210.1) was custom synthesized by GeneArt and ligated into the pIR1SAT vector via BglII restriction sites. Using the Q5 mutagenesis kit (NEB) and the pIR1SAT-LdCPSF3^WT construct as a template, mutations encoding A655C and Asn219His change to CPSF3^WT were introduced. Mutations were introduced using the specific primers 5′-GAGTACACGGCATCCGC-3′ and 5′-[…]-3′ and as per manufacturers’ instructions. Wild-type and mutated pIR1SAT constructs were digested with SwaI and transfected into L. donovani promastigotes, as previously described. Resistant clones were selected with nourseothricin (100 μg/mL), and two clones per transfection were selected for further study.
# as §2
# [9] = male, Sprague-Dawley, plasma, iv, rat, i.v. 2 mg/kg
# [10] = male, Sprague-Dawley, rat, plasma, IV 2.32 mg/kg, mean of R1-R3
# [11] = male, Sprague-Dawley, rat, plasma, PO 10.4 mg/kg, mean of R4-R6
# [12] = allometric scaling from rat and dog PK data
compound,measurement,setting,value
"Cc1c(C(=O)Nc2ccc3c(c2)B(O)OC3)nnn1-c1ccccn1 [Compound 23, N-(1-Hydroxy-1,3-dihydrobenzo[c][1,2]oxaborol-6-yl)-5-methyl-1-(pyridin-2-yl)-1H-1,2,3-triazole-4-carboxamide]",reduction in parasite burden,[1],> 98%
same,"fraction unbound at 6 h, 2 µM",[2],0.12
same,solubility at 24 h,"[3]; FaSSIF buffer pH 6.5, read-out: FaSSIF solubility",5.4 µg/mL
same,solubility at 24 h,"[3]; FeSSIF buffer pH 5.0, read-out: FeSSIF solubility",6.3 µg/mL
same,Plasma concentration,"[4]; IV 2.32 mg/kg, plasma, 5 min, mean of R1-R3",4727
same,Plasma concentration,"[4]; IV 2.32 mg/kg, plasma, 0.25 h, mean of R1-R3",4093
same,Plasma concentration,"[4]; IV 2.32 mg/kg, plasma, 0.50 h, mean of R1-R3",3627
same,Plasma concentration,"[4]; IV 2.32 mg/kg, plasma, 1.00 h, mean of R1-R3",2767
same,Plasma concentration,"[4]; IV 2.32 mg/kg, plasma, 4.00 h, mean of R1-R3",537
same,Plasma concentration,"[4]; IV 2.32 mg/kg, plasma, 8.00 h, mean of R1-R3",84.9
same,Plasma concentration,"[4]; IV 2.32 mg/kg, plasma, 24.0 h, mean of R1-R3",5.67
same,AUC0-inf/AUC0-last,"[4]; IV 2.32 mg/kg, mean of R1-R3",100%
same,Tlast,"[4]; IV 2.32 mg/kg, mean of R1-R3",24.0 h
same,Plasma concentration,"[4]; PO 10.4 mg/kg, plasma, 0.25 h, mean of R4-R6",4287
same,Plasma concentration,"[4]; PO 10.4 mg/kg, plasma, 0.50 h, mean of R4-R6",3993
same,Plasma concentration,"[4]; PO 10.4 mg/kg, plasma, 1.00 h, mean of R4-R6",5153
same,Plasma concentration,"[4]; PO 10.4 mg/kg, plasma, 2.00 h, mean of R4-R6",6900
same,Plasma concentration,"[4]; PO 10.4 mg/kg, plasma, 4.00 h, mean of R4-R6",5773
same,Plasma concentration,"[4]; PO 10.4 mg/kg, plasma, 8.00 h, mean of R4-R6",1249
same,Plasma concentration,"[4]; PO 10.4 mg/kg, plasma, 24.0 h, mean of R4-R6",13.8
same,AUC0-inf/AUC0-last,"[4]; PO 10.4 mg/kg, mean of R4-R6",100%
same,Tlast,"[4]; PO 10.4 mg/kg, mean of R4-R6",24.0 h
same,Vd at 24 h,[4]; [9],0.6 L/kg
same,half-life at 24 h,[4]; [9],2.8 h
same,clearance,"[4]; male, Sprague-Dawley, plasma, iv, rat, i.v. 2 mg/kg, read-out: clearance",4.5 mL/min/kg
same,bioavailability,"[4]; male, Sprague-Dawley, plasma, po, rat, p.o. 10 mg/kg, read-out: F",94%
same,AUC(0-inf),[4]; [10],9160 ng·h/mL
same,AUC(0-t),[4]; [10],9140 ng·h/mL
same,C0,[4]; [10],5100 ng/mL
same,half-life,[4]; [10],2.75 h
same,clearance,"[4]; male, Sprague-Dawley, rat, plasma, IV 2.32 mg/kg, mean of R1-R3, read-out: Cl",4.5 mL/min/kg
same,MRT inf,[4]; [10],2.29 h
same,MRT last,[4]; [10],2.21 h
same,Vd,"[4]; male, Sprague-Dawley, rat, plasma, IV 2.32 mg/kg, mean of R1-R3, read-out: Vdss",0.603 L/kg
same,bioavailability,"[4]; male, Sprague-Dawley, rat, plasma, PO 10.4 mg/kg vs IV 2.32 mg/kg, mean, read-out: Bioavailability",94%
same,AUC(0-inf),[4]; [11],38600 ng·h/mL
same,AUC(0-t),[4]; [11],38500 ng·h/mL
same,Cmax,[4]; [11],7330 ng/mL
same,Tmax,[4]; [11],2.67 h
same,half-life,[4]; [11],2.34 h
same,MRT inf,[4]; [11],4.18 h
same,MRT last,[4]; [11],4.15 h
same,predicted efficacious human dose,[5]; BID dosing in humans,3 to 20 mg/kg
same,predicted bioavailability in humans,[5]; [12],40–90%
same,predicted clearance in humans,[5]; [12],1 to 4 mL/min/kg
same,EC50,[6]; Figure 2A,47 ± 0.9 nM
same,EC50,[6]; Figure 2B,67 ± 1 nM
same,EC50,[7]; Trypanosoma brucei,172 ± 3 nM
same,fold less sensitive compared to wild-type,[7]; trypanosomes overexpressing wild-type CPSF3,2.9 fold
same,EC50,[8],508 ± 13 nM
